The values below come from patent publication US20240425523A1, “Compounds for the Degradation of EGFR Kinase” (Beigene Switzerland GMBH, priority 2023, published 2024).

Holding throughout (type): cell-based
Experiment [1] addresses T1, EGFR L858R (BaF3-L858R cells) (Homo sapiens, UniProt P00533, L858R).
T1 construct: host or cells: BaF3
As to the kind of experiment: Cell degradation of EGFR, HTRF assay, BaF3-L858R cells. To be noted: 16 h treatment; for DC50: EGFR degradation; for Dmax: maximum percentage of degradation. The procedure, abridged: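 EGFR L858R levels measured by HTRF antibody pair in lysed BaF3-L858R cells after 16 h compound exposure (8-point 5-fold series from 10 uM final, 37° C). Degradation is relative to DMSO-only cells; DC50 fitted with Hill equation, Dmax taken as the largest percent loss.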

Experiment [2] concerns the target T2, EGFR-L858R/C797S (H1975-clone #8 cells) (Homo sapiens, UniProt P00533, C797S/L858R).
T2 construct: expressed in transfected cells; host or cells: H1975 (endogenous EGFR knocked out, clone #8)
As to the kind of experiment: Cell degradation of EGFR, HTRF assay, H1975-clone#8 (L858R/C797S) cells. Particulars: 16 h treatment; for DC50: EGFR degradation; for Dmax: maximum percentage of degradation. A general note: In TR-FRET formats the signal depends on donor and acceptor labels being close together.

The target in experiment [3] is T3, p-EGFR L858R (BaF3-L858R cells) (Homo sapiens, UniProt P00533, L858R).
T3 construct: host or cells: BaF3
As to the kind of experiment: Cell p-EGFR inhibition assay, HTRF, BaF3-L858R cells. Particulars: 16 h treatment; for Imax (%): maximum percentage of pEGFR inhibition; for pIC50: pEGFR inhibition. The method, then:
BaF3-L858R (abbv. L858R) cell were purchased from Kangyuan Bochuang Biotechnology (Beijing) Co., Ltd.
(§1) H1975-#23 and BaF3-L858R cells are treated with compounds diluted in 0.1% DMSO cell culture medium on day 2, incubate for 16 h, 37° C., 5% CO2. the final concentration of compounds in all assay is start with 10 uM, 5-fold dilution, total 8 doses were included.
(§2) After 16 h treatment, for H1975-#23 cells, add 50 ul HTRF 1× lysis buffer to each well; for BaF3-L858R cells, add 20 μl 4× lysis buffer to each well; seal the plate and incubate 1 hour at room temperature on a plate shaker; Once the cells are lysed, 16 μL of cell lysate are transferred to a PE 384-well HTRF detection plate; 4 μL of pre-mixed HTRF antibodies are added to each well; Cover the plate with a plate sealer, spin 1000 rpm for 1 min, Incubate overnight at room temperature; Read on BMG PheraStar with HTRF protocol (337 nm-665 nm-620 nm).
(§3) High control=Cell group with added DMSO and without compound, indicating microplate readings without p-EGFR inhibited.
(§4) Imax is the maximum percentage of inhibition.
(§5) The IC50 value of a compound can be obtained by fitting the following equation.
(§6) Wherein, X and Y are known values, and IC50, Hillslope, Top and Bottom are the parameters obtained by fitting with software. […] The experimental data were fitted by calculating and analyzing with Dotmatics data analysis software.

Experiment [4] deals with p-EGFR Del19/C797S (H1975-clone #23 cells) (Homo sapiens, UniProt P00533). As to the kind of experiment: Cell p-EGFR inhibition assay, HTRF, H1975-clone#23 (DEL19/C797S) cells. Particulars: 16 h treatment; for Imax (%): maximum percentage of pEGFR inhibition; for pIC50: pEGFR inhibition. The method, then: The EGFR over-expressed cells then underwent knockout, in which the EGFR targeting sgRNA was designed to only target the endogenous EGFR copies and preserve the exogenous EGFR copies. Followed by the knockout, the edited H1975 cells were seeded in 96 well plates at the concentration of 1 cell/well, cultured for about 2 weeks to allow single clones formation. The formed clones were screened by DNA sequencing and whole exon sequencing analysis for the desired edition.
as §1, §2, §3, §4, §5, §6

pIC50: −log10 of the molar value.

For `Cc1cc2cc(n1)-c1cnn(C)c1OC[C@H]1CCC(C1)CN1/C(=N/C2=O)Nc2ccc(N3CCN([C@H]4CCN(c5ccc(C6CCC(=O)NC6=O)nc5C)C[C@@H]4F)CC3)cc21` (stereo partly drawn) [Example 76, 3-(5-((3S,4S)-4-(4-((7^1R,7^3S,E)-1^1,2^6-dimethyl-3-oxo-5^2,5^3-dihydro-1^1H,5^1H-9-oxa-4-aza-5(2,1)-benzo[d]imidazola-2(2,4)-pyridina-1(4,5)-pyrazola-7(1,3)-cyclopentanacyclononaphane-5^6-yl)piperazin-1-yl)-3-fluoropiperidin-1-yl)-6-methylpyridin-2-yl)piperidine-2,6-dione], in experiment [1], the DC50 (in general, the midpoint of the concentration-degradation curve) came out at 3.23 nM and the Dmax (as a rule, the greatest extent of degradation seen) was 84.8%. In experiment [2], this molecule returned a DC50 of 3.87 nM and a Dmax of 79.4%. Besides, in experiment [3], the “Imax (%)” value is 94.9% and the negative logarithm of the IC50 (pIC50) (in general, the negative decadic logarithm of the IC50, by convention in mol/L) was 8.11. Further, in experiment [4], the “Imax (%)” value worked out at 101% and the negative-log IC50 (pIC50) is 9.15.
Turning to `Cc1cc2cc(n1)-c1c(C)nn(C)c1OC[C@H]1CC[C@H](C1)CN1/C(=N/C2=O)Nc2ccc(N3CCC(CN(C)C4CCN(c5cc(F)c([C@H]6CCC(=O)NC6=O)c(F)c5)CC4)CC3)cc21` [Example 138, (R)-3-(2,6-difluoro-4-(4-(methyl((1-((7^1R,7^3S,E)-1^1,1^3,2^6-trimethyl-3-oxo-5^2′5^3-dihydro-1^1H,5^1H-9-oxa-4-aza-5(2,1)-benzo[d]imidazola-2(2,4)-pyridina-1(4,5)-pyrazola-7(1,3)-cyclopentanacyclononaphane-5^6-yl)piperidin-4-yl)methyl)amino)piperidin-1-yl)phenyl)piperidine-2,6-dione], the values for the DC50 in experiment [1] and in experiment [2] were 3.61 nM and 1.27 nM, respectively. In addition, the Dmax worked out at 85.5% in experiment [1] and 83.4% in experiment [2]. Further, the “Imax (%)” value in experiment [3] was determined as 104.27%; in experiment [4] it was 102.96%. The negative-log IC50 (pIC50) was 8.15 in experiment [3] and 8.86 in experiment [4].
In experiment [1], `Cc1cc2cc(n1)-c1c(C)nn(C)c1OC[C@H]1CC[C@H](C1)CN1/C(=N/C2=O)Nc2ccc(N3CCN(CC4CCN(c5cc(F)c([C@H]6CCC(=O)NC6=O)c(F)c5)CC4)CC3)cc21` [Example 182, (R)-3-(2,6-difluoro-4-(4-((4-((7^1R,7^3S,E)-1^1,1^3,2^6-trimethyl-3-oxo-5^2,5^3-dihydro-1^1H,5^1H-9-oxa-4-aza-5(2,1)-benzo[d]imidazola-2(2,4)-pyridina-1(4,5)-pyrazola-7(1,3)-cyclopentanacyclononaphane-5^6-yl)piperazin-1-yl)methyl)piperidin-1-yl)phenyl)piperidine-2,6-dione] registered a half-maximal degradation concentration (DC50) of 21.8 nM and a maximal degradation (Dmax) of 89.2%. Besides, in experiment [2], the DC50 was found to be 1.39 nM and the Dmax came out at 79.8%. Moreover, in experiment [3], the “Imax (%)” value was 100.38% and the pIC50 is 8.66. For the same molecule, in experiment [4], the “Imax (%)” value amounted to 99.73% and the negative logarithm of the IC50 (pIC50) was 8.62.
Regarding `Cc1cc2cc(n1)-c1c(C)nn(C)c1OC[C@H]1CCC(C1)CN1/C(=N/C2=O)Nc2ccc(N3CCN(CC4CCN(c5cc(F)c([C@H]6CCC(=O)NC6=O)c(F)c5)CC4)[C@H](C)C3)cc21` [Example 134, (R)-3-(2,6-difluoro-4-(4-(((R)-2-methyl-4-((7^1R,7^3S,E)-1^1,1^3,2^6-trimethyl-3-oxo-5^2,5^3-dihydro-1^1H,5^1H-9-oxa-4-aza-5(2,1)-benzo[d]imidazola-2(2,4)-pyridina-1(4,5)-pyrazola-7(1,3)-cyclopentanacyclononaphane-5^6-yl)piperazin-1-yl)methyl)piperidin-1-yl)phenyl)piperidine-2,6-dione], the DC50 was 1.89 nM in experiment [1] and 4.97 nM in experiment [2]. Moreover, the greatest degradation seen (Dmax) in experiment [1] worked out at 85.9%; in experiment [2], 79.9%. The results for the “Imax (%)” value in experiment [3] and in experiment [4] were 98.27% and 92.81%, respectively. Further, the negative logarithm of the IC50 (pIC50) in experiment [3] is 8.60; in experiment [4], 8.75.
In the case of `CCc1nn(C)c2c1-c1cc(cc(C)n1)C(=O)/N=C1\Nc3ccc(N4CCN(C5CCN(c6cc(F)c([C@H]7CCC(=O)NC7=O)c(F)c6)CC5)[C@@H](COC)C4)cc3N1C[C@@H]1CC[C@H](CO2)C1` [Example 175, (R)-3-(4-(4-((R)-4-((7^1R,7^3S,E)-1^3-ethyl-1^1,2^6-dimethyl-3-oxo-5^2,5^3-dihydro-1^1H,5^1H-9-oxa-4-aza-5(2,1)-benzo[d]imidazola-2(2,4)-pyridina-1(4,5)-pyrazola-7(1,3)-cyclopentanacyclononaphane-5^6-yl)-2-(methoxymethyl)piperazin-1-yl)piperidin-1-yl)-2,6-difluorophenyl)piperidine-2,6-dione], the results for the DC50 in experiment [1] and in experiment [2] were 4.07 nM and 7.25 nM, respectively. Further, the Dmax came to 88.7% in experiment [1] and 83.9% in experiment [2]. For the same molecule, the “Imax (%)” value in experiment [3] is recorded as 98.51%; in experiment [4], 100.72%. The pIC50 in experiment [3] was 8.55; in experiment [4], 8.89.
Regarding `Cc1cc2cc(n1)-c1cnn(C)c1OC[C@H]1CC[C@H](C1)CN1/C(=N/C2=O)Nc2ccc(N3CCN(C4CCN(c5ccc([C@H]6CCC(=O)NC6=O)nc5C)CC4)[C@H](C)C3)cc21` [Example 162, 3-(5-(4-((R)-4-((7^1R,7^3S,E)-1^1,2^6-dimethyl-3-oxo-5^2,5^3-dihydro-1^1H,5^1H-9-oxa-4-aza-5(2,1)-benzo[d]imidazola-2(2,4)-pyridina-1(4,5)-pyrazola-7(1,3)-cyclopentanacyclononaphane-5^6-yl)-2-methylpiperazin-1-yl)piperidin-1-yl)-6-methylpyridin-2-yl)piperidine-2,6-dione], the values for the DC50 in experiment [1] and in experiment [2] were 4.86 nM and 3.14 nM, respectively. For the same molecule, the Dmax in experiment [1] was determined as 88.6%; in experiment [2] it was 85.4%. For the same molecule, the “Imax (%)” value is listed as 93.37% in experiment [3] and 95.16% in experiment [4]. The pIC50 is 8.43 in experiment [3] and 9.68 in experiment [4].
In experiment [1], `Cc1cc2cc(n1)-c1c(C)nn(C)c1OC[C@H]1CC[C@H](C1)CN1/C(=N/C2=O)Nc2ccc(N3CCN([C@H]4CCN(c5cc(F)c([C@H]6CCC(=O)NC6=O)c(F)c5)C4)CC3)cc21` (single isomer, unassigned) [Example 186] displayed a 50% degradation concentration (DC50) of 3.82 nM and a Dmax of 80%. In experiment [2], this molecule returned a DC50 of 2.92 nM and a maximal degradation (Dmax) of 80.4%. Further, in experiment [3], the “Imax (%)” value amounted to 92% and the negative logarithm of the IC50 (pIC50) was 8.32. In experiment [4], the “Imax (%)” value is 100.56% and the negative logarithm of the IC50 (pIC50) is 8.62.
Consider `COC[C@@H]1CN(c2cc3c(cc2C)N/C2=N\C(=O)c4cc(C)nc(c4)-c4c(C)nn(C)c4OC[C@H]4CC[C@H](C4)CN23)CCN1C1CCN(c2cc(F)c([C@H]3CCC(=O)NC3=O)c(F)c2)CC1` [Example 173, (R)-3-(2,6-difluoro-4-(4-((S)-2-(methoxymethyl)-4-((7^1R,7^3S,E)-1^1,1^3,2^6,5^5-tetramethyl-3-oxo-5^2,5^3-dihydro-1^1H,5^1H-9-oxa-4-aza-5(2,1)-benzo[d]imidazola-2(2,4)-pyridina-1(4,5)-pyrazola-7(1,3)-cyclopentanacyclononaphane-5^6-yl)piperazin-1-yl)piperidin-1-yl)phenyl)piperidine-2,6-dione], for which the values for the DC50 in experiment [1] and in experiment [2] were 4.28 nM and 4.31 nM, respectively. Besides, the values for the maximal degradation (Dmax) in experiment [1] and in experiment [2] were 95.2% and 91.4%, respectively. Moreover, the “Imax (%)” value came to 98.39% in experiment [3] and 103.01% in experiment [4]. For the same molecule, the negative-log IC50 (pIC50) is 7.94 in experiment [3] and 8.40 in experiment [4].
